Source: paper PMC5773580, “A synthetic combinatorial approach to disabling deviant Hedgehog signaling” (Scientific Reports, 2018)
pIC50: −log10 of the molar value. Several values for one entry are separate records, joined by “and”; a condition that tells them apart may be missing. Equal entries are not always repeated.

How the values were obtained:
HDAC2 = target: T1, HDAC2 (Homo sapiens, UniProt Q92769); assay: In vitro HDAC profiling (deacetylation assay), HDAC2; type: biochemical; conditions: for HDAC Activity (Fluorescent counts): Repeat1/Repeat 2
T1 construct: purchased BPS Bioscience #50051-11
T1 sequence (Q92769 whole entry): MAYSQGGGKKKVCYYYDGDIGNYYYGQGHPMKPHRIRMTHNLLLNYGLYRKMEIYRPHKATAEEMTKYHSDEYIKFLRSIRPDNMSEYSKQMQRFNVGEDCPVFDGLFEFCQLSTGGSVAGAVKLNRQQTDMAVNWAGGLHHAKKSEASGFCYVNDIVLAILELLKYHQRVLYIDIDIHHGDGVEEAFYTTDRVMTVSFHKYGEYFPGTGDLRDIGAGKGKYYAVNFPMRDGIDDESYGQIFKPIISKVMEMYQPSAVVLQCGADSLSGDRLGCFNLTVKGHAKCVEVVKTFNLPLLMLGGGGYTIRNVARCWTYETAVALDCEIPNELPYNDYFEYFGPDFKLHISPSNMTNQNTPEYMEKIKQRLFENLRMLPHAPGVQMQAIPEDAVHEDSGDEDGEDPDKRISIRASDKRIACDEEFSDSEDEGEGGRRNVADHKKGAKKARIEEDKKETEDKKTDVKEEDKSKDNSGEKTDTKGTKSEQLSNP
Method: (§1) HDAC profiling was performed at BPS Bioscience (San Diego, CA). All of the compounds are dissolved in DMSO. A series of dilutions of the compounds were prepared with 10% DMSO in HDAC assay buffer (#50031) and 5 µl of the dilution was added to a 50 µl reaction so that the final concentration of DMSO is 1% in all of reactions. All of the enzymatic reactions were conducted in duplicate at 37 °C for 30 mins, except that the enzyme reactions for HDAC11 were at room temperature for 3 hrs. All of the reactions were performed in a 50 µl mixture containing HDAC assay buffer, 5 µg BSA, an HDAC substrate [HDAC Substrate 3 (BPS number 50037) or HDAC Class 2a Substrate 1 (BPS number 50040)], an HDAC enzyme (#50051-11) and a test compound. After enzymatic reactions, 50 μl of HDAC Developer (#50030) was added to each well and the plate was incubated at room temperature for an additional 20 mins. Fluorescence intensity was measured at an excitation of 360 nm and an emission of 460 nm using a Tecan Infinite M1000 microplate reader. HDAC activity assays were performed in duplicates at each concentration. The fluorescent intensity data were analyzed using the computer software, Graphpad Prism. In the absence of the compound, the fluorescent intensity (Ft) in each data set was defined as 100% activity. In the absence of HDAC, the fluorescent intensity (Fb) in each data set was defined as 0% activity. The percent activity in the presence of each compound was calculated according to the following equation: %activity = (F − Fb)/(Ft − Fb), where F = the fluorescent intensity in the presence of the compound. The values of % activity versus a series of compound concentrations were then plotted using non-linear regression analysis of Sigmoidal dose-response curve generated with the equation Y = B + (T − B)/1 + 10((LogIC50 − X) × Hill Slope), where Y = percent activity, B = minimum percent activity, T = maximum percent activity, X = logarithm of compound and Hill Slope = slope factor or Hill coefficient. The IC50 value was determined by the concentration causing a half-maximal percent activity.

[1] = system: GLI1 binding to DNA in RMS13 cells; assay: GLI DNA binding assay (biotinylated oligo pulldown); type: cell-based; conditions: lysate of RMS13 cells treated 48 hrs
Method: A detailed protocol for DNA binding assay was previously described. Briefly, cells treated for 48 hrs with compounds were lysed in 1% NP40/phosphate buffered saline/protease inhibitors and cleared using a microcentrifuge. The lysate was then incubated with 0.5 µM of double-strand biotinylated oligonucleotides and 40 µl streptavidin-agarose bead suspension (Thermo Scientific, 20349) for 2 hrs. The streptavidin agarose beads are washed (3X) with 1% NP40/phosphate buffered saline/protease inhibitors and eluted with 2X Laemmli sample buffer. The supernatants are separated on SDS-PAGE and analyzed using western blotting. Antibodies were purchased from the following vendors: GLI1 (Cell Signaling Technology, #2534) and actin (SIGMA, #A5441).

HDAC6 = target: T2, HDAC6 (Homo sapiens, UniProt Q9UBN7); assay: In vitro HDAC profiling (deacetylation assay), HDAC6; type: biochemical; conditions: for HDAC Activity (Fluorescent counts): Repeat1/Repeat 2
T2 construct: purchased BPS Bioscience #50051-11
T2 sequence (Q9UBN7 1-1215): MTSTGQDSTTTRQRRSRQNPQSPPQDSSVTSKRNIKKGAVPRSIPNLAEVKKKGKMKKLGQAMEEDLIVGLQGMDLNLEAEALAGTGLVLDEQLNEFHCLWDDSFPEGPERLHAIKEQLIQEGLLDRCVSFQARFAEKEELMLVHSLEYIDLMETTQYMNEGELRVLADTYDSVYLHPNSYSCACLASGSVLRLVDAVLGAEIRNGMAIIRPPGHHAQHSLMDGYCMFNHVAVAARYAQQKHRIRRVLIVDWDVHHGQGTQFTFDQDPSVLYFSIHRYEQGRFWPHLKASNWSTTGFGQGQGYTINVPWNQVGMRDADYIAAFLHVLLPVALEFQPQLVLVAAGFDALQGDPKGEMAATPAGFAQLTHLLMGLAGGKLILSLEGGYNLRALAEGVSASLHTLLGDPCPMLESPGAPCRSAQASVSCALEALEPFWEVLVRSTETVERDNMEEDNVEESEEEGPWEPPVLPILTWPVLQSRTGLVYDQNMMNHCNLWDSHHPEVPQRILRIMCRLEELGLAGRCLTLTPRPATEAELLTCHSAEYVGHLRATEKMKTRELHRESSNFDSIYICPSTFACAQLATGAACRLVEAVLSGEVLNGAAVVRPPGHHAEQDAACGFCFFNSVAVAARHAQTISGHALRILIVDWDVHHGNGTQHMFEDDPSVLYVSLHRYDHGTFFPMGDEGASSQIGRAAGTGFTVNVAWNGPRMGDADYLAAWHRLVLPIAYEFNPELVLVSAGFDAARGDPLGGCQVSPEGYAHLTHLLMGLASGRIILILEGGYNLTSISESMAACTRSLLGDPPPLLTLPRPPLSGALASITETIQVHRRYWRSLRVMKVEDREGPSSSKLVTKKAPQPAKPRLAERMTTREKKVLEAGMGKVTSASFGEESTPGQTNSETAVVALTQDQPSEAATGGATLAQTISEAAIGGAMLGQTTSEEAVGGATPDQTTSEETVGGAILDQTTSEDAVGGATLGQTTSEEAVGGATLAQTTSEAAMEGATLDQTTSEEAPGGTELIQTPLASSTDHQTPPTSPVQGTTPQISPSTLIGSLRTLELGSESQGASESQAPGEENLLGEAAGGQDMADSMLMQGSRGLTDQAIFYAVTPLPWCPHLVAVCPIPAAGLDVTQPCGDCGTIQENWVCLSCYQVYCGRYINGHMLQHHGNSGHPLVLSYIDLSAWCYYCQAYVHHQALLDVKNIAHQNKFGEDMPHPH
Method: as §1

[2] = in vitro deacetylation assay, duplicates

Q: What does the source list for `O=C(CCCCCCC(=O)Nc1ccc(Cl)c(C(=O)Nc2ccc(NC(=O)c3cc(Cl)ccc3Cl)cc2)c1)NO` [IHR-SAHA]?
A: HDAC Activity (Fluorescent counts) (HDAC2; HDAC2, WW01 0 Log nM): 25941 Fluorescent counts and 27493 Fluorescent counts; HDAC Activity (Fluorescent counts) (HDAC2; HDAC2, WW01 0.5 Log nM): 25227 Fluorescent counts and 26727 Fluorescent counts; HDAC Activity (Fluorescent counts) (HDAC2; HDAC2, WW01 1 Log nM): 25275 Fluorescent counts and 25129 Fluorescent counts; HDAC Activity (Fluorescent counts) (HDAC2; HDAC2, WW01 1.5 Log nM): 23536 Fluorescent counts and 23240 Fluorescent counts; HDAC Activity (Fluorescent counts) (HDAC2; HDAC2, WW01 2 Log nM): 22337 Fluorescent counts and 21686 Fluorescent counts; HDAC Activity (Fluorescent counts) (HDAC2; HDAC2, WW01 2.5 Log nM): 18050 Fluorescent counts and 16002 Fluorescent counts; HDAC Activity (Fluorescent counts) (HDAC2; HDAC2, WW01 3 Log nM): 12392 Fluorescent counts and 11718 Fluorescent counts; HDAC Activity (Fluorescent counts) (HDAC2; HDAC2, WW01 3.5 Log nM): 9603 Fluorescent counts and 9800 Fluorescent counts; HDAC Activity (Fluorescent counts) (HDAC2; HDAC2, WW01 4 Log nM): 7673 Fluorescent counts and 7404 Fluorescent counts; HDAC Activity (Fluorescent counts) (HDAC2; HDAC2, WW01 -0.5 Log nM): 26601 Fluorescent counts and 28049 Fluorescent counts; pIC50 (HDAC2; [2]): 6.13; GLI1 binding to immobilized oligos with consensus GLI binding sequence [1]: loss of GLI1 binding; HDAC Activity (Fluorescent counts) (HDAC6; HDAC6, WW01 0 Log nM): 17916 Fluorescent counts and 17639 Fluorescent counts; HDAC Activity (Fluorescent counts) (HDAC6; HDAC6, WW01 0.5 Log nM): 16713 Fluorescent counts and 17763 Fluorescent counts; HDAC Activity (Fluorescent counts) (HDAC6; HDAC6, WW01 1 Log nM): 14605 Fluorescent counts and 14491 Fluorescent counts; HDAC Activity (Fluorescent counts) (HDAC6; HDAC6, WW01 1.5 Log nM): 11120 Fluorescent counts and 11971 Fluorescent counts; HDAC Activity (Fluorescent counts) (HDAC6; HDAC6, WW01 2 Log nM): 7800 Fluorescent counts and 7793 Fluorescent counts; HDAC Activity (Fluorescent counts) (HDAC6; HDAC6, WW01 2.5 Log nM): 5185 Fluorescent counts and 5345 Fluorescent counts; HDAC Activity (Fluorescent counts) (HDAC6; HDAC6, WW01 3 Log nM): 4209 Fluorescent counts and 4174 Fluorescent counts; HDAC Activity (Fluorescent counts) (HDAC6; HDAC6, WW01 3.5 Log nM): 3548 Fluorescent counts and 3756 Fluorescent counts; HDAC Activity (Fluorescent counts) (HDAC6; HDAC6, WW01 4 Log nM): 3616 Fluorescent counts and 3660 Fluorescent counts; HDAC Activity (Fluorescent counts) (HDAC6; HDAC6, WW01 -0.5 Log nM): 18352 Fluorescent counts and 17865 Fluorescent counts; pIC50 (HDAC6; [2]): 7.33
